{
  "source": "patent US8604047B2",
  "about": "“Method and composition for treating nodulocystic and conglobate acne vulgaris” (Elorac, Inc., priority 2010, dated 2013)",
  "assay_type_in_all_cases": "in vivo, human",
  "key": {"[1]": {"experiment": "Oral administration to patients with conglobate acne (acne conglobata)", "procedure": "Capsules containing 0.05 mg by weight of dutasteride are administered twice daily for 6 months to patients with conglobate acne.\nA flavored oral solution incorporating a 0.75 mg by weight of dutasteride per every 5 ml of solution is administered to young patients with acne conglobata once daily for 24 weeks.\nTablets containing 0.1 mg by weight of finasteride are administered once daily for 12 weeks to patients with acne conglobata."}, "[2]": {"experiment": "Daily oral or topical formulations of 5AR inhibitors in male patients with nodulocystic or conglobate acne"}, "[3]": {"experiment": "Topical cream applied to skin of patients with numerous acne papules, pustules, nodules and cysts", "conditions": "5% dutasteride cream, once daily for 8 weeks, most patients", "procedure": "A 5% dutasteride cream is prepared containing water, propylene glycol, bentonite, glycerol stearate, isopropyl myristate and cellulose gum, and applied once daily to the skin of patients with numerous acne papules, pustules, nodules and cysts for 8 weeks. After 8 weeks of such treatment, most patients will have at least a 20% decrease in the number of inflammatory acne lesions."}, "[4]": {"experiment": "Topical application by patients with nodulocystic acne", "from_the_text": "Patients with active nodulocystic acne apply 0.05% by weight finasteride prepared in an alcoholic gel containing 6% polyoxyethylene lauryl ether twice daily for 12 weeks.\nAn aqueous/alcohol solution containing 20% by weight finasteride is applied once daily by patients with nodulocystic acne."}, "[5]": {"experiment": "Oral administration to patients with nodulocystic acne", "conditions": "most patients", "procedure": "Tablets containing 0.5 mg by weight of finasteride are administered once daily for 12 weeks to patients with nodulocystic acne.\nCaplets containing 50 mg by weight of finasteride are administered once a week for 24 weeks to patients with severe nodulocystic acne."}},
  "data": [
    {"smiles": "C[C@]12C=CC(=O)N[C@@H]1CC[C@@H]1[C@@H]2CC[C@]2(C)[C@@H](C(=O)Nc3cc(C(F)(F)F)ccc3C(F)(F)F)CC[C@@H]12", "note": "[dutasteride]", "values": [
      {"measurement": "resolution of inflammatory nodules, cysts and sinus tracts", "setting": "[1]; capsules 0.05 mg dutasteride, oral, twice daily for 6 months", "result": "resolution of some of their inflammatory nodules, cysts and sinus tracts"},
      {"measurement": "resolution of conglobate acne at end of treatment", "setting": "[1]; oral solution 0.75 mg dutasteride per 5 ml, once daily for 24 weeks, young patients, some patients", "result": "complete resolution of their conglobate acne"},
      {"measurement": "improvement of nodulocystic or conglobate acne", "setting": "[2]", "result": "dramatic improvement"},
      {"measurement": "decrease in the number of inflammatory acne lesions", "setting": "[3]", "result": "≥ 20", "unit": "%"}
    ]},
    {"smiles": "CC(C)(C)NC(=O)[C@H]1CC[C@H]2[C@@H]3CC[C@H]4NC(=O)C=C[C@]4(C)[C@H]3CC[C@]12C", "note": "[finasteride]", "values": [
      {"measurement": "old acne lesions by end of treatment", "setting": "[1]; tablets 0.1 mg finasteride, oral, once daily for 12 weeks", "result": "resolved with only minor scarring"},
      {"measurement": "new acne lesions by end of treatment", "setting": "[1]; tablets 0.1 mg finasteride, oral, once daily for 12 weeks, most patients", "result": "very few new acne lesions"},
      {"measurement": "improvement of nodulocystic or conglobate acne", "setting": "[2]", "result": "dramatic improvement"},
      {"measurement": "nodules and cysts versus before starting treatment", "setting": "[4]; 0.05% by weight finasteride alcoholic gel with 6% polyoxyethylene lauryl ether, twice daily for 12 weeks", "result": "fewer nodules and cysts"},
      {"measurement": "improvement in appearance after twelve weeks", "setting": "[4]; aqueous/alcohol solution 20% by weight finasteride, once daily, twelve weeks, many patients", "result": "dramatic improvement in their appearance"},
      {"measurement": "improvement observed after two weeks", "setting": "[4]; aqueous/alcohol solution 20% by weight finasteride, once daily, two weeks, most patients", "result": "some improvement"},
      {"measurement": "reduction in acne nodules and cysts", "setting": "[5]; caplets 50 mg finasteride, once a week for 24 weeks, severe nodulocystic acne", "result": "marked reduction in acne nodules and cysts"},
      {"measurement": "activity of inflammatory acne lesions at end of treatment", "setting": "[5]; tablets 0.5 mg finasteride, once daily for 12 weeks", "result": "significant decrease in the activity of their inflammatory acne lesions"}
    ]}
  ]
}
